Reference: US10501459B2, “Substituted imidazo[1,2-a]pyridines as bromodomain inhibitors” (NEOMED Institute, priority 2015, dated 2019)

Key:
[1] = tested on: human C-Myc gene transcription in MV-4-11 cells; test: Transcription of human C-Myc in human leukemic MV-4-11 cells (QuantiGene 2.0); format: cell-based; conditions: Homo sapiens, MV4-11, 4 h, inhibition of C-Myc mRNA, 4 hours treatment
Experimental: b) Transcription of Human C-Myc in Human Leukemic MV-4-11 Cells:
The effect of compounds on transcription of human C-Myc gene is monitored in human B-myelomonocytic leukemia cell line MV-4-11 (from American Type Culture Collection (ATCC), Manassas, Va., USA) using QuantiGene 2.0 assay kit (Affymetrix, Santa Clara, Calif., USA).
Typically, 8,000 MV-4-11 cells are plated in sterile 96-well plates (Costar #3598 from Fisher Scientific Canada, Ottawa, Ontario, Canada) in Iscove's medium supplemented with 10% fetal bovine serum, glutamine (2 mM), and penicillin (100 I.U.) and streptomycin (100 μg/mL) (all from Wisent Inc., St. Bruno, Quebec, Canada). Compounds are dissolved in DMSO at 30 mM. A series of 1:3 dilutions are first made in DMSO, and further […] dilutions are made in serum-containing cell culture media. The final concentration of DMSO is […] in cell culture media. After cells are treated with various concentrations of test compound for 4 hours, cells are lysed using Quantigene 2.0 sample processing kit (#QS0100). C-Myc mRNA is detected using a QuantiGene 2.0 assay kit (#QS0009) with gene-specific probe to human C-Myc (#SA-50182) following the manufacturer's recommendations. Luminescene signals are read on Flexstation II microplate reader (Molecular Devices, Sunnyvale, Calif., USA). Percentage of inhibition of C-Myc transcription is analyzed using EXCEL (2010 version).

[2] = molecular target: T1, BRD4(BD1) (Homo sapiens, UniProt O60885); test: In vitro bromodomain inhibition, BRD4(BD1) / biotinylated H4-tetraacetyl peptide AlphaLISA; format: binding; conditions: His-tagged BRD4 BD1 200 nM, H4 peptide 200 nM, read-out: BRD4α (IC50)
T1 construct: purchased BPS Bioscience
Experimental: a) In Vitro Bromodomain Inhibition
To measure activity of bromodomain inhibitors, a His-epitope tagged BRD4 BD149-170 is purchased from BPS Bioscience. BRD4 binding and inhibition is assessed by monitoring the engagement of biotinylated H4-tetraacetyl peptide (H4K5/8/12/16; AnaSpec #64989-025) with the target using the AlphaLISA technology (Perkin-Elmer). Specifically, in a 384 well OptiPlate, BRD4(BD1) (200 nM final) is pre-incubated with either DMSO (final 1.0% DMSO) or a compound dilution series in DMSO. All reagents are diluted in assay buffer containing 50 mM HEPES (pH 7.4), 100 mM NaCl, 0.1% (w/v) BSA, and 0.05% (w/v) CHAPS. After a 30 minute incubation at room temperature, H4 peptide is added (200 nM final) and the reaction is incubated an additional 30 minutes at room temperature. Alpha streptavidin donor beads and AlphaLISA nickel chelate acceptor beads are then added to a final concentration of 10 μg/mL each. After one hour, equilibration plates are read on an Envision instrument and IC50s calculated using a four parameter non-linear curve fit.

IC50 [1] [µM]	IC50 [2] [µM]	SMILES
0.276	0.313	COc1ccc(Cc2cnc3ccc(-c4cc(C)c(=O)n(C)c4)cn23)cc1 [Compound 4, 5-[3-[(4-methoxyphenyl)methyl]imidazo[1,2-a]pyridin-6-yl]-1,3-dimethyl-pyridin-2-one]
0.0939	0.113	Cc1cc(-c2ccc3ncc(Cc4cccc(F)c4)n3c2)cn(C)c1=O [Compound 5, 5-[3-[(3-fluorophenyl)methyl]imidazo[1,2-a]pyridin-6-yl]-1,3-dimethyl-pyridin-2-one]
0.844	0.195	Cc1cc(-c2ccc3ncc(CN4CCCCC4)n3c2)cn(C)c1=O [Compound 8, 1,3-dimethyl-5-[3-(1-piperidylmethyl)imidazo[1,2-a]pyridin-6-yl]pyridin-2-one]
0.837	0.318	Cc1cc(-c2ccc3ncc(CNc4ccccc4)n3c2)cn(C)c1=O [Compound 10, 5-[3-(anilinomethyl)imidazo[1,2-a]pyridin-6-yl]-1,3-dimethyl-pyridin-2-one]

Second part, the compound before the results:

SMILES	IC50 [1] [µM]	IC50 [2] [µM]
Cc1cc(-c2ccc3ncc(Cc4ccccc4)n3c2)cn(C)c1=O [Compound 1, 5-(3-benzylimidazo[1,2-a]pyridin-6-yl)-1,3-dimethyl-pyridin-2-one]	0.058	0.122
Cc1cc(-c2ccc3ncc(Cc4ccc(F)cc4)n3c2)cn(C)c1=O [Compound 2, 5-[3-[(4-fluorophenyl)methyl]imidazo[1,2-a]pyridin-6-yl]-1,3-dimethyl-pyridin-2-one]	0.0592	0.0995
Cc1cc(-c2ccc3ncc(Cc4ccc(Cl)cc4)n3c2)cn(C)c1=O [Compound 3, 5-[3-[(4-chlorophenyl)methyl]imidazo[1,2-a]pyridin-6-yl]-1,3-dimethyl-pyridin-2-one]	0.0863	0.143
Cc1cc(-c2ccc3ncc(COC4CCCC4)n3c2)cn(C)c1=O [Compound 9, 5-[3-(cyclopentoxymethyl)imidazo[1,2-a]pyridin-6-yl]-1,3-dimethyl-pyridin-2-one]	0.152	0.153
